Tests used:
epididymal fat pad = test: Material-only implantation at the murine epididymal fat pad; parameters: species or system C57BL6 mice; settings: mouse, in vivo
Procedure: Material-only implantation. Healthy, age-matched male C57BL6 mice (Jackson Laboratories, Bar Harbor, Me.) were anesthetized with nebulized isoflurane (IsoThesia; Butler/Abbott Laboratories, North Chicago, Ill.) and intraperitoneal injection of 2% Avertin (2,2,2-tribromoethanol, Sigma) at 0.3 mg/g body weight, prior to shaving of the abdomen and sterile preparation of the surgical site. The left epididymal fat pad was exposed through midline lower abdominal incision and manipulation of the tissue flap. This thin, well-vascularized tissue is analogous to the omentum of larger mammals and has dimensions on the order of 1.5—1.5 cm. Sterile, two-component mixing and adhesive delivery was achieved by a dual-barrel blending connector with mixer device (Micromedics, St Paul, Minn.) containing sterile-filtered 300 mg/mL cPEG and 0.056 M sodium periodate, respectively.
Following topical delivery of approximately […] adhesive, the deposition site was left undisturbed for 1 min. The sample site was then manually reinserted into the lower abdominal cavity and the incision closed with double-layer suture. Mice were monitored postoperatively until conscious recovery. At three days, two weeks, six weeks, and one-year post-implant, the adhesive and associated adipose tissue was surgically removed from anesthetized mice, prior to euthanasia. […]

fetal membranes [1] = test: Direct contact-induced apoptosis (TUNEL) in fetal membranes; format: cell-based
Procedure: Toxicity tests. Toxicity of sealants for fetal membrane cells was evaluated using direct contact and elution tests, as per International Organization for Standardization (ISO) 10993-5 guidelines.
Direct contact cytotoxicity. […] 4.5 software (Carl Zeiss).

fetal membranes [2] = system: fetal membranes
Procedure: Direct contact cytotoxicity. Direct contact studies were performed with term fetal membranes obtained from three cases. The amniotic layer was chosen for sealant application (FIG. 1A) because this layer was proposed to be the strength-bearing layer of fetal membranes and major determinant for PPROM.^31 2×1 cm patches of freshly harvested fetal membranes were placed into wells of 6-well plates with amnion layer up. […] Membranes covered with sealant were covered with 3 mL culture medium (Ham's F-12/DMEM supplemented with 10% FBS, 100 U/ml penicillin, and 100 μg/ml streptomycin) and cultured for 24 h at 37° C. […] Deparaffinized sections were either stained with hematoxylin-eosin (H/E), or stained for apoptotic cells using TUNEL technology (Terminal deoxynucleotidyl transferase dUTP nick end labeling; In Situ Cell Death Detection Kit, Fluorescein (Roche Diagnostics GmbH, Mannheim, Germany). For total cell counts, all cell nuclei were counterstained with 4′,6-diamidin-2′-phenylindol-dihydrochlorid (DAPI; Sigma, Buchs, Switzerland). The histologic images were taken with a Zeiss Axiovert 200M fluorescent microscope (Carl Zeiss, Goettingen, Germany) equipped with an Zeiss AxioCam MRc digital camera and analysed with AxioVision Rel. […] One tissue section per case was analysed, taking four optical fields per section for analysis.

“four-armed catechol-terminated polyethylene glycol (cPEG) [cPEG adhesive]” was tested, and the “immediate local reaction at deposition site” value (epididymal fat pad) was “no immediate visible inflammation or redness”, the non-specific postsurgical adhesions (epididymal fat pad) was “no evidence of non-specific postsurgical adhesions” and the “apoptosis compared with control” value (fetal membranes [1]) was “did not enhance apoptosis over control”. For the same substance, the “effect on membrane morphology” value (fetal membranes [2]) was “normal membrane morphology appeared maintained”.
